# Assay results reported in ChEMBL document CHEMBL1201862, “PubChem BioAssay data set” (2004).
# Activity calls are given as the source filed them.
# System: not listed separately
# Assay: Luminescence Cell-Based Dose Response HTS to Identify Inhibitors of 5'UTR Stem-Loop Driven Prion Protein mRNA Translation in H4 Neuroglioblastoma Cells. [Related pubchem assays: 1827 (Project Summary), 1813 (Primary HTS)]
# Type: functional
# Settings: not given
row,SMILES,EC50
1,CC(C)c1nnc(NC(=O)CC(=O)Nc2ccccc2C(=O)O)s1,14.6 µM (active)
2,COc1ccc(NC(=O)c2cc(Cl)ccc2Cl)c([N+](=O)[O-])c1,> 120 µM (not active)
3,Cc1ccc(-c2cc(-c3ccc(F)cc3)nc(N)c2C#N)o1,> 120 µM (not active)
4,CCOC(=O)c1ccc(NC(=O)CSc2nnc(-c3cccs3)n2CC)cc1,> 120 µM (not active)
5,O=C(NCCC1=CCCCC1)C1CCC(CNc2nc(S)nc3ccccc23)CC1 (stereo not drawn),> 120 µM (not active)
6,COC(=O)c1sccc1NC(=O)C1CC2CCC1C2 (stereo not drawn),> 120 µM (not active)

# System: not listed separately
# Assay: ZM109 Env clade C HIV-1 fusion inhibitors, dose response, HeLa effector, CEM target cells, luciferase, cherry-pick (AID 652058)
# Type: functional, cell-based
# Settings: not given
row,SMILES,AC50
1,CC(C)NC(=O)Nc1ccc2c(c1)C(=O)N([C@@H](C)CO)C[C@@H](C)[C@@H](CN(C)C(=O)Nc1ccc(F)cc1)OCCCC[C@@H](C)O2,5.56 µM (active)
2,C[C@H]1CN([C@@H](C)CO)C(=O)c2ccccc2-c2ccccc2CO[C@H]1CN(C)Cc1ccc(F)cc1,< 0.285 µM (active)
3,COc1ccccc1-c1ccc2c(c1)O[C@H](CN(C)S(=O)(=O)c1ccccc1)[C@H](C)CN([C@H](C)CO)S2(=O)=O,51.3 µM (active)

# Biological target: T1, Heat shock factor protein 1 (Mus musculus, UniProt P38532)
# T1 sequence (P38532 whole entry): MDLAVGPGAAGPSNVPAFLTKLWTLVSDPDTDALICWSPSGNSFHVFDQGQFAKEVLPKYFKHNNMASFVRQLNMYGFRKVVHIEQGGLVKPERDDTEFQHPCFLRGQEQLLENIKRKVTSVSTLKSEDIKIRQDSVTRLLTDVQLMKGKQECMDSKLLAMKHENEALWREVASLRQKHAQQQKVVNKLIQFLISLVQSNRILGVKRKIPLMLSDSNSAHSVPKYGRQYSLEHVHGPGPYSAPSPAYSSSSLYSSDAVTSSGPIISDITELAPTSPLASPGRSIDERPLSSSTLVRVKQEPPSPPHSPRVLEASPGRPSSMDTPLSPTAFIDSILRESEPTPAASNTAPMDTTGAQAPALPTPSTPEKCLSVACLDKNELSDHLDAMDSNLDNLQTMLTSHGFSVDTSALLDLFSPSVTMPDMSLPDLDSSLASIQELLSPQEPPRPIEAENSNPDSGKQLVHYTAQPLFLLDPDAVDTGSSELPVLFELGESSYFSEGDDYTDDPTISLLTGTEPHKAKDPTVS
# Assay: inhibition of MG132-induced HSE-luciferase signal, confirmation, cell-based, NIH3T3, luminescence, dose retest (AID 2382);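 further: NIH3T3 fibroblasts with HSF1-driven luciferase reporter stressed by proteasome inhibitor MG132; luminescence from HSF1-driven luciferase expression after 8 hours of MG132 stress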
# Type: functional
# Settings: not given
row,SMILES,EC50
1,Cc1ccc2[nH]c(O)c(N=Nc3ccccc3C)c2c1,> 195 µM (not active)

# Biological target: T2, RNA-binding protein pos-1 (Caenorhabditis elegans, UniProt G5EF15)
# T2 sequence (G5EF15 whole entry): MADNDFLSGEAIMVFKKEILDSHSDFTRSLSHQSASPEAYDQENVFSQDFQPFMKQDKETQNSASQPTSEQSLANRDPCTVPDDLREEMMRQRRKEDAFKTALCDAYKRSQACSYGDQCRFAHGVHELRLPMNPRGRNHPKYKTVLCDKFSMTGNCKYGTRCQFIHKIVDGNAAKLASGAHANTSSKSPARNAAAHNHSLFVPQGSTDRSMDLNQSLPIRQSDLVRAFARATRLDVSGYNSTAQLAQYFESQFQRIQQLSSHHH
# Assay: inhibitors of POS-1/mex-3 RNA binding, dose response, biochemical, fluorescence polarization (AID 1964);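 further: purified POS-1 fused to maltose binding protein made in E. coli; potency of compounds blocking POS-1 binding to fluorescent RNA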
# Settings: not given
row,SMILES,EC50
1,Cc1ccc(N/C=C/C(=O)c2sc(-c3ccccc3)nc2C)cc1,46.4 µM (inconclusive)
2,CCOc1ccc2c(c1)/C(=C(\C(Cl)=C(Cl)Cl)[N+](=O)[O-])N2,68 µM (active)
3,Cc1ccc2[nH]c(O)c(N=Nc3ccccc3C)c2c1,> 300 µM (not active)
4,O=C(NNC(=O)c1ccccc1O)c1ccc(S(=O)(=O)Nc2ccccc2F)cc1,> 300 µM (not active)
5,COC(=O)c1sccc1NC(=O)c1ccc(C)s1,> 300 µM (not active)

# System: H9c2;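 further: confirmatory concentration-response retest of ultra-high-throughput screening hits for modulation of myocardial damage; cell death induced by hydrogen peroxide oxidative stress; compound pretreatment for 60 min then peroxide exposure for 2 h; potency is for protecting the cells against peroxide damage rather than for killing them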
# Assay: cells
# Type: functional, cell-based
# Settings: Rattus norvegicus, H9c2, Myocardium
row,SMILES,IC50
1,O=[N+]([O-])c1ccc(-c2nc(Nc3ccc(O)cc3)c3ccccc3n2)cc1,> 79 µM (inactive)
2,Cc1c(C#N)c(N)nc2c3c(sc12)NC(=O)CC3c1ccc(Cl)cc1 (stereo not drawn),28.2 µM (active)
3,Oc1nc(-c2cccnc2)nc2ccccc12,12.8 µM (active)
4,COc1ccc(-c2cc(=O)oc3cc(OC(=O)C4CCCCC4)ccc23)cc1,22 µM (active)
5,Cc1ccc(C)c(S(=O)(=O)N2CCN(C(=O)Cn3[nH]c(=O)c4ccccc4c3=O)CC2)c1,> 79 µM (inactive)
6,COc1ccc(NC(=S)N(Cc2cccnc2)Cc2cc3cc(OC)c(OC)cc3nc2O)cc1,> 79 µM (inactive)
7,O=C(Nc1cccc2cccnc12)c1ccc2sc([C@H]3C[C@H](O)[C@@H](CO)O3)nc2c1,11 µM (active)
8,CC(=O)c1ccc(-c2[nH]c3ccccc3c2CCN2C(=O)c3ccccc3C2=O)cc1,> 79 µM (inactive)
9,CC(=C/c1ccc(C(C)C)cc1)/C=N/NC(=O)c1ccncc1,> 79 µM (inactive)
10,O=[N+]([O-])c1ccc(Nc2nc(N/N=C/c3cccc(F)c3)nc(N3CCCC3)n2)cc1,> 79 µM (inactive)

# System: not listed separately
# Assay: A Cell Based Secondary Assay To Explore Cytotoxicity of Compounds that Sensitize Mycobacterium Tuberculosis to Beta-Lactam Antibiotics.
# Type: functional
# Settings: not given
row,SMILES,CC50
1,O=C(C1=C[C@@H](c2ccc(Br)cc2)C[C@@H](OCc2ccc(CO)cc2)O1)N1CCN(Cc2ccc3c(c2)OCO3)CC1,> 40 µM (active)
2,Cn1nnnc1Sc1ncnc2scc(-c3ccccc3)c12,30 µM (active)
3,CCOC(=O)c1c(C)[nH]c(C)c1C(=O)COC(=O)/C=C/c1ccc(OC(F)F)cc1,> 40 µM (active)
4,Cc1c(C(=O)NC(=S)Nc2ccccc2N2CCCC2)cccc1[N+](=O)[O-],> 40 µM (active)
5,C=CCSc1nnc(-c2cc3c(-c4ccccc4)nn(C)c3s2)n1C,> 40 µM (active)
6,COc1ccc(-c2cc(C(F)(F)F)nc(SCC(=O)Nc3sc4c(c3C#N)CCC4)n2)cc1,> 40 µM (active)
7,CCOc1cc(/C=N\NC(=O)c2ccc(NC(=O)C(C)(C)C)cc2)ccc1OC(=O)c1ccc(C)cc1,> 40 µM (active)

# System: not listed separately
# Assay: inhibitors of clade B AD8 Env fusion, dose response, cell-based, cherry-pick (AID 652062);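 further: luciferase signal from cell-cell fusion driven by HIV-1 clade B AD8 Env; potency is for inhibitors of fusion seen as a drop in luminescence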
# Type: functional
# Settings: not given
row,SMILES,AC50
1,CC(C)NC(=O)Nc1ccc2c(c1)C(=O)N([C@@H](C)CO)C[C@@H](C)[C@@H](CN(C)C(=O)Nc1ccc(F)cc1)OCCCC[C@@H](C)O2,3.2 µM (active)
2,C[C@H]1CN([C@@H](C)CO)C(=O)c2ccccc2-c2ccccc2CO[C@H]1CN(C)Cc1ccc(F)cc1,0.857 µM (active)

# System: not listed separately
# Assay: inhibitors of HIV Env-driven cell fusion, dose response, cherry-pick (AID 652057)
# Type: functional, cell-based
# Settings: not given
row,SMILES,AC50
1,CC(C)NC(=O)Nc1ccc2c(c1)C(=O)N([C@@H](C)CO)C[C@@H](C)[C@@H](CN(C)C(=O)Nc1ccc(F)cc1)OCCCC[C@@H](C)O2,2.79 µM (active)
2,C[C@H]1CN([C@@H](C)CO)C(=O)c2ccccc2-c2ccccc2CO[C@H]1CN(C)Cc1ccc(F)cc1,< 0.285 µM (active)
3,COc1ccccc1-c1ccc2c(c1)O[C@H](CN(C)S(=O)(=O)c1ccccc1)[C@H](C)CN([C@H](C)CO)S2(=O)=O,23.5 µM (active)

# Biological target: T3, Zinc finger protein mex-5 (Caenorhabditis elegans, UniProt Q9XUB2)
# T3 sequence (Q9XUB2 whole entry): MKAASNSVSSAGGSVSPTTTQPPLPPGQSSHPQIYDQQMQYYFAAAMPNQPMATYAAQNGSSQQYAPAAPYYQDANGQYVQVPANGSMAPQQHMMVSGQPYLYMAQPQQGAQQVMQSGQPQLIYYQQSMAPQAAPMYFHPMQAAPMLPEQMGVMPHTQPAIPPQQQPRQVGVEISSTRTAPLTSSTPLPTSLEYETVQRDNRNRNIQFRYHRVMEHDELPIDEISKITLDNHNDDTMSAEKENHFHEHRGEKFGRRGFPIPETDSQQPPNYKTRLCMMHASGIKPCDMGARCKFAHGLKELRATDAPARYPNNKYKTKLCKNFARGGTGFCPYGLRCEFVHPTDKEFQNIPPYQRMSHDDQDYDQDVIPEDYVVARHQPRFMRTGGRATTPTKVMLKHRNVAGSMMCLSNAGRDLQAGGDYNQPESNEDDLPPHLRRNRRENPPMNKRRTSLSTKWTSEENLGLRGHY
# Assay: MEX-5/TCR-2 RNA interaction inhibitors, dose response, biochemical, C. elegans, fluorescence polarization (AID 1960)
# Settings: not given
row,SMILES,EC50
1,Cc1ccc(N/C=C/C(=O)c2sc(-c3ccccc3)nc2C)cc1,> 300 µM (not active)
2,CCOc1ccc2c(c1)/C(=C(\C(Cl)=C(Cl)Cl)[N+](=O)[O-])N2,40.3 µM (active)
3,Cc1ccc2[nH]c(O)c(N=Nc3ccccc3C)c2c1,> 300 µM (not active)
4,O=C(NNC(=O)c1ccccc1O)c1ccc(S(=O)(=O)Nc2ccccc2F)cc1,> 300 µM (inconclusive)
5,COC(=O)c1sccc1NC(=O)c1ccc(C)s1,> 300 µM (not active)

# System: not listed separately
# Assay: inhibitors of firefly luciferase expression or activity, dose response, H4 neuroglioma cells, luminescence (AID 1990)
# Type: functional, cell-based
# Settings: not given
row,SMILES,EC50
1,CC(C)c1nnc(NC(=O)CC(=O)Nc2ccccc2C(=O)O)s1,16.3 µM (active)
2,COc1ccc(NC(=O)c2cc(Cl)ccc2Cl)c([N+](=O)[O-])c1,> 120 µM (not active)
3,Cc1ccc(-c2cc(-c3ccc(F)cc3)nc(N)c2C#N)o1,17.1 µM (active)
4,CCOC(=O)c1ccc(NC(=O)CSc2nnc(-c3cccs3)n2CC)cc1,> 120 µM (not active)
5,O=C(NCCC1=CCCCC1)C1CCC(CNc2nc(S)nc3ccccc23)CC1 (stereo not drawn),9.48 µM (active)
6,COC(=O)c1sccc1NC(=O)C1CC2CCC1C2 (stereo not drawn),> 120 µM (not active)

# Biological target: T4, Ubiquitin-conjugating enzyme E2 N (Homo sapiens, UniProt P61088);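 further: Dose-response confirmation in a TR-FRET assay detecting UBC13-driven polyubiquitin chain formation, inhibition measured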
# T4 sequence (P61088 whole entry): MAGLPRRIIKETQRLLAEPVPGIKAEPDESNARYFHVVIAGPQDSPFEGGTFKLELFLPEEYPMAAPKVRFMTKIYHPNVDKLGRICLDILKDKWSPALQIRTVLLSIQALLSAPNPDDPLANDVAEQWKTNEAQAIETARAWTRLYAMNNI
# Assay: not given
# Type: functional
# Settings: not given
row,SMILES,IC50
1,CCN1C(N(C)CCc2c[nH]c3ccccc23)=N[C@@H](c2cccc(C(F)(F)F)c2)C(C(=O)OC)=C1C,> 20 µM (inactive)

# System: not listed separately
# Assay: microbe, parasite or virus in culture
# Type: functional
# Settings: Mycobacterium tuberculosis
row,SMILES,CC50
1,CCOc1ccc2nc(NC(=O)C34CC5CC(CC(NC(C)=O)(C5)C3)C4)sc2c1,> 40 µM (active)
2,CCN1C(N(C)CCc2c[nH]c3ccccc23)=N[C@@H](c2cccc(C(F)(F)F)c2)C(C(=O)OC)=C1C,14.3 µM (active)

# System: not listed separately
# Assay: inhibitors of SNCA 5'UTR-driven reporter translation, confirmation, H4 neuroglioma cells, luminescence (AID 1988)
# Type: functional, cell-based
# Settings: not given
row,SMILES,EC50
1,CC(C)c1nnc(NC(=O)CC(=O)Nc2ccccc2C(=O)O)s1,11.3 µM (active)
2,COc1ccc(NC(=O)c2cc(Cl)ccc2Cl)c([N+](=O)[O-])c1,> 120 µM (not active)
3,Cc1ccc(-c2cc(-c3ccc(F)cc3)nc(N)c2C#N)o1,49.7 µM (active)
4,CCOC(=O)c1ccc(NC(=O)CSc2nnc(-c3cccs3)n2CC)cc1,> 120 µM (not active)
5,O=C(NCCC1=CCCCC1)C1CCC(CNc2nc(S)nc3ccccc23)CC1 (stereo not drawn),> 120 µM (not active)
6,COC(=O)c1sccc1NC(=O)C1CC2CCC1C2 (stereo not drawn),> 120 µM (not active)

# Biological target: Cytochrome P450 2C19 (Homo sapiens, UniProt P33261)
# Assay: Cytochrome panel assay with activity outcomes. Panel member name: p450-cyp2c19 Compounds with AC50 equal or less than 10 uM are considered active
# Type: functional
# Settings: read-out: AC50
# Cytochrome P450 2C19, sequence (P33261 whole entry): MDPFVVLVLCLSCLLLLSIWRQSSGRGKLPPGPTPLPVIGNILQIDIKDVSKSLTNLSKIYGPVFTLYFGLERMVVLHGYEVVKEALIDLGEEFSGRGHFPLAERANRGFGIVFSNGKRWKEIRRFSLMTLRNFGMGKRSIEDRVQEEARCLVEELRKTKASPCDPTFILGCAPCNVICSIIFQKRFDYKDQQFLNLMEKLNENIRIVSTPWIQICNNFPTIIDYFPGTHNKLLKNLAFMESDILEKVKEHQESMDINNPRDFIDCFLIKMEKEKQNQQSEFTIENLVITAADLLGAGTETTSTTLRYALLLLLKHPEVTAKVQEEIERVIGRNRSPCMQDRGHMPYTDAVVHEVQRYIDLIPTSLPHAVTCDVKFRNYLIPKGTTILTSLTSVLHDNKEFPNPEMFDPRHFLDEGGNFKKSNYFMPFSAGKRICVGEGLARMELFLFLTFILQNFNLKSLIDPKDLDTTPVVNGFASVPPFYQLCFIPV
row,SMILES,AC50
1,C=CCSc1nnc(-c2cc3c(-c4ccccc4)nn(C)c3s2)n1C,17.8 µM (inconclusive)
